Experimental data taken from US20220144838A1, “Compounds as Inhibitors of Macrophage Migration Inhibitory Factor” (NANJING IMMUNOPHAGE BIOTECH CO., LTD., priority 2019, published 2022).
Read-outs that look alike come from different tables or passages of the source.

Key:
MIF = target: T1, MIF (Homo sapiens, UniProt P14174); assay: MIF tautomerase assay using pHPP as substrate; format: biochemical; conditions: mean of multiple test results
T1 sequence (P14174 2-115 limits assumed): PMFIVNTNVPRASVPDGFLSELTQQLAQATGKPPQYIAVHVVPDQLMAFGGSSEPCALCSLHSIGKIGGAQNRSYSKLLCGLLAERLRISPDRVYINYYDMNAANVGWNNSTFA
Outline: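 Mean pIC50 derived from initial rates (absorbance progress-curve slopes) of MIF-catalyzed ketonic-to-enolic pHPP conversion, read as enol–borate complex. Reactions contained 1.5 mM substrate and 3 nM enzyme (final), 200 mM boric acid stock buffer, BSA and CHAPS, pH 6.0.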

[1] = target: T2, biotinylated human MIF / MIF receptor ectodomain (sCD74) (Homo sapiens, UniProt P14174); assay: MIF-CD74 binding assay; conditions: FIGS. 9-12; read-out: pIC50 MIF-CD74 binding (converted)
T2 construct: made in house
T2 sequence (P14174 2-115 limits assumed): T1 sequence (P14174 2-115 limits assumed)
Procedure: The assay measures the ability of a compound to inhibit the binding of MIF with its receptor CD74 in vitro. 96-well plates were coated with recombinant MIF receptor ectodomain (sCD74=CD7473-232), washed 4 times, and blocked with Superblock (Pierce Biotechnology) at 4° C. overnight. Test compounds, which were used at a top final assay concentration of 33.3 μM, diluted in assay medium with 1:3 dilutions to produce 10 point concentration responses, were pre-incubated with biotinylated human MIF (2 ng/μl) (Roche Applied Sciences) prepared recombinantly for 30 minutes at room temperature. The mixtures then were added to wells for overnight incubation at 4° C. The wells were washed 4 times and strepavidin-conjugated alkaline phosphatase (R&D Systems) was added for one hour incubation at room temperature. After additional washes, 60 μl/well of p-nitrophenyl phosphate (Sigma) substrate was added. Absorbance at 405 nm was plotted as percent A405 relative to wells containing biotinylated human MIF alone. Each plot represented at least three independently performed assays, and each data point depicts a SEM≤10%. Each test compound was analyzed over 10-12 concentrations, and over a ˜500-fold concentration range.
(§1) Selected examples were tested in the MIF-CD74 binding assay. The data mentioned below represents a mean pIC50 value of multiple test results. It is understood that the data illustrated below may have reasonable variation depending on the specific conditions and procedures used by the person conducting the testing.

BV2 cells = assay: BV2 cell proliferation assay (CCK-8); format: cell-based; conditions: Mus musculus, BV-2, 48 h treatment, FIGS. 6-8, read-out: pIC50 BV2 cell proliferation (converted)
Source text: The assay measures the ability of a compound to inhibit cell proliferation using Cell Counting Kit-8 (CCK-8), which allows sensitive colorimetric assays for the determination of cell viability in cell proliferation and cytotoxicity assays. The highly water-soluble tetrazolium salt, WST-8, is reduced by dehydrogenase activities in cells to give a yellow-color formazan dye, which is soluble in the tissue culture media. The amount of the formazan dye, generated by the activities of dehydrogenases in cells, is directly proportional to the number of living cells.
The assay was performed based on the instruction of the manufacture (Dojindo Molecular Technologies Inc., Rockville, Md., USA). To start the assay, BV2 cells were seeded at a density of […] into 96-well plates and treated with test compounds, which were used at a top final assay concentration of 33.3 μM, diluted in assay medium with 1:3 dilutions to produce 10 point concentration responses, for 48 h. After incubation, the CCK-8 solution (10 μl) was added to each well of the plate and the plates were incubated in incubator at 37° C. for 3 h. Absorbance was recorded three times independently using a microplate reader (Bio-Rad Laboratories, Richmond, Calif., USA) at 450 nm.
as §1, with “BV2 cell proliferation” for “MIF-CD74 binding”

4T1 cells = assay: 4T1 breast cancer syngeneic mouse model; format: in vivo, Balb/c mice; conditions: 4T1 model; IMG-321 20 mg/kg b.i.d. combined with gemcitabine 3 mg/kg once every 10 days
Procedure: Female Balb/c mice (5-6 weeks old) were purchased from Charles River Laboratories (Hollister, Calif.). Animals were housed and treated in accordance with Institutional Animal Care and Use Committee guidelines. For the generation of 4T1 breast cancer model, 1×10^5 4T1 cells were injected orthotopically into the mammary fat pad. For the generation of lung cancer model, 1×10^5 LLC cells were injected subcutaneously. For the generation of murine melanoma model, 1×10^5 B16-F10 cells were injected subcutaneously. Test compounds were administered by I.P. injection in a dose range of 10-100 mg/kg starting on study day 1 (7 days after tumor implantation). Control groups received vehicle (water) twice daily by I.P. injection. Tumor volume measured by digital caliper (length×width×width/2) and body weight were recorded three times per week. Animals were euthanized when tumors necrotized or volumes reached 2000 mm3.
One-way Anova, student's T test, and Mann-Whitney test performed by GraphPad5 PRISM software (GraphPad Software, Inco, San Diego, Calif., USA) were used according to different experimental conditions. P value<0.05 was considered statistically significant. Significance is indicated in the figures by asterisks *p<0.05, **p<0.01.
Female Balb/C mice (8 weeks old) were injected with 1×10^5 4T1 cells into the mammary fat pad. […] Tumor volume was measured by digital caliper (length×width×width/2). […]

[2] = inhibition of the MIF enzyme in vitro, read-out: Tautomerase Inhibition pIC50 (converted)

Structure (SMILES) | IC50 (MIF; [2]) [nM] | also measured
COc1ccc2c(cnn2-c2nc(N3CCN(c4ccc(O)cc4)CC3)nc3c2ncn3CC(=O)O)c1 [Example 51, 2-(2-(4-(4-hydroxyphenyl)piperazin-1-yl)-6-(5-methoxy-1H-indazol-1-yl)-9H-purin-9-yl)acetic acid] | 10 to 97.7 | IC50 (MIF; FIGS. 1-5, read-out: pIC50 MIF tautomerase activity (converted)): ≤ 100 nM; IC50 [1]: 8910 nM
COc1ncccc1-n1cnc2c(C)nc(N3CCN(c4ccc(O)cc4)CC3)nc21 [Example 62, 4-(4-(9-(2-methoxypyridin-3-yl)-6-methyl-9H-purin-2-yl)piperazin-1-yl)phenol] | 10 to 97.7 | IC50 [1]: 26300 nM
Nc1nc(N2CCN(c3ccc(O)cc3)CC2)nc2c1ncn2-c1ccncc1 [Example 80, 4-(4-(6-amino-9-(pyridin-4-yl)-9H-purin-2-yl)piperazin-1-yl)phenol] | 10 to 97.7 | IC50 (BV2 cells): 5020 nM
Nc1nc(N2CCN(c3ccc(O)cc3)CC2)nc2c1ncn2-c1cncnc1 [Example 81, 4-(4-(6-amino-9-(pyrimidin-5-yl)-9H-purin-2-yl)piperazin-1-yl)phenol] | 1000 to 9770 | IC50 (BV2 cells): 23100 nM
Oc1ccc(N2CCN(c3nc(NCC4CC4)c4ncn(-c5cccnc5)c4n3)CC2)cc1 [Example 95, 4-(4-(6-((cyclopropylmethyl)amino)-9-(pyridin-3-yl)-9H-purin-2-yl)piperazin-1-yl)phenol] | 1000 to 9770 | IC50 (BV2 cells): 6920 nM
Nc1nc(N2CCN(c3ccc(O)cc3)CC2)nc2c1ncn2-c1cccnc1 [Example 115, 4-(4-(6-amino-9-(pyridin-3-yl)-9H-purin-2-yl)piperazin-1-yl)phenol] | 100 to 977 | IC50 [1]: 2610 nM
O=C(O)CCn1cnc2c(-n3ncc4ccccc43)nc(N3CCN(c4ccc(O)cc4)CC3)nc21 [Example 148, 4-(2-(4-(4-hydroxyphenyl)piperazin-1-yl)-6-(1H-indazol-1-yl)-9H-purin-9-yl)propanoic acid] | 10 to 97.7 | IC50 [1]: 4900 nM
O=C(O)Cn1cnc2c(-n3ncc4ccccc43)nc(N3CC(O)(c4ccc(O)cc4)C3)nc21 [Example 216, 2-(2-(3-hydroxy-3-(4-hydroxyphenyl)azetidin-1-yl)-6-(1H-indazol-1-yl)-9H-purin-9-yl)acetic acid] | 10 to 97.7 | 
O=C(O)CCCCn1cnc2c(-n3ncc4ccccc43)nc(N3CCC(O)(c4ccc(O)cc4)CC3)nc21 [Example 217, 5-(2-(4-hydroxy-4-(4-hydroxyphenyl)piperidin-1-yl)-6-(1H-indazol-1-yl)-9H-purin-9-yl)pentanoic acid] | 10 to 97.7 | 
Oc1ccc(C2(O)CCN(c3nc(Nc4ccncc4)c4nc[nH]c4n3)CC2)cc1 [Example 219, 4-(4-hydroxyphenyl)-1-(6-(pyridin-4-ylamino)-9H-purin-2-yl)piperidin-4-ol] | 100 to 977 | 
CN(c1ccncc1)c1nc(N2CCC(O)(c3ccc(O)cc3)CC2)nc2[nH]cnc12 [Example 220, 4-(4-hydroxyphenyl)-1-(6-(methyl(pyridin-4-yl)amino)-9H-purin-2-yl)piperidin-4-ol] | > 10000 | 
O=C(O)Cn1cnc2c(-n3ncc4ccccc43)nc(N3CC(O)(c4ccccc4)C3)nc21 [Example 221, 2-(2-(3-hydroxy-3-phenylazetidin-1-yl)-6-(1H-indazol-1-yl)-9H-purin-9-yl)acetic acid] | 100 to 977 | 
C#CCn1cnc2c(-n3ncc4ccccc43)nc(N3CCC(O)(c4ccc(O)cc4)CC3)nc21 [Example 222, 1-(6-(1H-indazol-1-yl)-9-(prop-2-yn-1-yl)-9H-purin-2-yl)-4-(4-hydroxyphenyl)piperidin-4-ol] | 100 to 977 | 
O=C(O)Cn1cnc2c(-n3ncc4ccccc43)nc(N3CCC(O)(c4ccc(F)cc4)CC3)nc21 [Example 223, 2-(2-(4-(4-fluorophenyl)-4-hydroxypiperidin-1-yl)-6-(1H-indazol-1-yl)-9H-purin-9-yl)acetic acid] | 100 to 977 | 
OCCn1cnc2c(-n3ncc4ccccc43)nc(N3CCC(O)(c4ccc(F)cc4)CC3)nc21 [Example 224, 4-(4-fluorophenyl)-1-(9-(2-hydroxyethyl)-6-(1H-indazol-1-yl)-9H-purin-2-yl)piperidin-4-ol] | 1000 to 9770 | 
OCCn1cnc2c(-n3ncc4ccccc43)nc(N3CC(O)(c4ccccc4)C3)nc21 [Example 225, 1-(9-(2-hydroxyethyl)-6-(1H-indazol-1-yl)-9H-purin-2-yl)-3-phenylazetidin-3-ol] | 1000 to 9770 | 
Nc1nc(N2CCN(c3ccc(O)cc3)CC2)nc2c(-c3ccncc3)c[nH]c12 [Example 226, 4-(4-(4-amino-7-(pyridin-4-yl)-5H-pyrrolo[3,2-d]pyrimidin-2-yl)piperazin-1-yl)phenol] | > 10000 | 
Nc1nc(N2CCCN(c3ccccc3)CC2)nc2c1ncn2-c1ccncc1 [Example 227, 2-(4-phenyl-1,4-diazepan-1-yl)-9-(pyridin-4-yl)-9H-purin-6-amine] | > 10000 | 
Oc1ccc(N2CCN(c3nc(-n4ncc5ccccc54)c4ncn(C5CCOC5)c4n3)CC2)nc1 (stereo not drawn) [Example 228, 6-(4-(6-(1H-indazol-1-yl)-9-(tetrahydrofuran-3-yl)-9H-purin-2-yl)piperazin-1-yl)pyridin-3-ol] | 100 to 977 | 
Cc1nc(N2CCN(c3ccc(O)cc3)CC2)nc2c1ncn2-c1cccnc1 [Example 229, 4-(4-(6-methyl-9-(pyridin-3-yl)-9H-purin-2-yl)piperazin-1-yl)phenol] | 10 to 97.7 | 
Nc1nc(N2CCN(c3ccc(O)cn3)CC2)nc2c1ccn2-c1ccncc1 [Example 230, 6-(4-(4-amino-7-(pyridin-4-yl)-7H-pyrrolo[2,3-d]pyrimidin-2-yl)piperazin-1-yl)pyridin-3-ol] | 1000 to 9770 | 
Nc1ccn([C@@H]2O[C@H](CO)[C@@H](O)C2(F)F)c(=O)n1 [Gemcitabine, gemcitabine] |  | breast cancer growth (tumor volume), combination (4T1 cells): Synergistically Inhibited Breast Cancer Growth
